# Experimental data from patent US7932270B2 (Cytokinetics, Inc., priority 2006, dated 2011).
# Target: T1, chicken gizzard smooth muscle myosin subfragment-1 chemically crosslinked to cardiac or skeletal actin (Gallus gallus, UniProt P10587)
# T1 construct: chicken gizzard smooth muscle myosin subfragment-1; from tissue; host or cells: chicken gizzard
# Assay: Smooth muscle myosin ATPase dose response assay (pyruvate kinase/horseradish peroxidase/pyruvate oxidase-coupled, amplex red fluorescence)
# Type: biochemical
# Conditions: read-out: IC50 Arithmetic Mean
# Procedure, shortened: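 Inhibition is measured in a peroxidase/pyruvate oxidase-linked format at pH 7.00 and 22° C, 0.15 mM ATP final. Myosin input is titrated to a target turnover since active fraction differs between preparations.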
# T1 sequence (P02607 2-151): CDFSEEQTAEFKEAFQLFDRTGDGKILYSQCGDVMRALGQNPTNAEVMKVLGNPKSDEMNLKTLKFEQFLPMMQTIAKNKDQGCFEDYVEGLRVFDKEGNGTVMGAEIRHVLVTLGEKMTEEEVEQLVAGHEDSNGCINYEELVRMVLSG
# T1 sequence (P10587 84-789): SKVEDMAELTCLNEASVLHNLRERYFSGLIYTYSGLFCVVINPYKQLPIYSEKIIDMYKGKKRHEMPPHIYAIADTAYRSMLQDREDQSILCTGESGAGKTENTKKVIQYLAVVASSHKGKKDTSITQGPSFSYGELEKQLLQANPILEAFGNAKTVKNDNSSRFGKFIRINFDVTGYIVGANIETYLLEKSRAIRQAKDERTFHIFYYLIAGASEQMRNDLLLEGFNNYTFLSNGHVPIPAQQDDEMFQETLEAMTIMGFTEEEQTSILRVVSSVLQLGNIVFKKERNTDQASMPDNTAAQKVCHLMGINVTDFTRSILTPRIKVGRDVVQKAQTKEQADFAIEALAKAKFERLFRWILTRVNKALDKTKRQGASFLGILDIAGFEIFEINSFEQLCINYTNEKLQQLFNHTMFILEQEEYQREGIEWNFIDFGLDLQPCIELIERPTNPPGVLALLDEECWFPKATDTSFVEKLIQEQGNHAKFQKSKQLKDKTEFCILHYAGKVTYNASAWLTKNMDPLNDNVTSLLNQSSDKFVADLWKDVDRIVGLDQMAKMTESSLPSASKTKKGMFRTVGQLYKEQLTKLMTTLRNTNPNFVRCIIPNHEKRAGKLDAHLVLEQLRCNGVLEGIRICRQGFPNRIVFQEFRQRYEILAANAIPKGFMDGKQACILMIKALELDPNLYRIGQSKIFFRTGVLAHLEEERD
row,Structure (SMILES),IC50 [nM]
1,N#Cc1ccccc1-c1ccc(C(=O)NCCN2C(=O)CC[C@H]2CN)c(NCCc2cccc(F)c2)n1 [N-{2-[(5S)-5-(aminomethyl)-2-oxopyrrolidinyl]ethyl}(6-(2-cyanophenyl)-2-{[2-(3-fluorophenyl)ethyl]amino}(3-pyridyl))carboxamide],17900
2,CC(=O)NCCNC(=O)c1ccc(-c2ccccc2C#N)nc1NCCc1cccc(F)c1 [N-{2-[(6-(2-cyanophenyl)-2-{[2-(3-fluorophenyl)ethyl]amino}-3-pyridyl)carbonylamino]ethyl}acetamide],958
3,CN(CCNC(=O)c1ccc(-c2ccccc2C#N)nc1NCCc1cccc(F)c1)C(=O)OC(C)(C)C [N-{2-[(tert-butoxy)-N-methylcarbonylamino]ethyl}(6-(2-cyanophenyl)-2-{[2-(3-fluorophenyl)ethyl]amino}(3-pyridyl))carboxamide],42200
4,CN(CCNC(=O)CNC(=O)c1ccc(-c2ccccc2C#N)nc1NCCc1cccc(F)c1)C(=O)OC(C)(C)C [N-{2-[(tert-butoxy)-N-methylcarbonylamino]ethyl}-2-[(6-(2-cyanophenyl)-2-{[2-(3-fluorophenyl)ethyl]amino}(3-pyridyl))carbonylamino]acetamide],65500
5,CC(=O)NCCCNC(=O)c1cc(F)c(-c2cnn(C)c2)nc1NCCc1cccc(F)c1 [N-{3-[(5-fluoro-2-{[2-(3-fluorophenyl)ethyl]amino}-6-(1-methylpyrazol-4-yl)-3-pyridyl)carbonylamino]propyl}acetamide],2620
6,N#Cc1ccccc1-c1ccc(C(=O)NCCCN2C(=O)CC[C@@H]2CN)c(NCCc2cccc(F)c2)n1 [N-{3-[(5R)-5-(aminomethyl)-2-oxopyrrolidinyl]propyl}(6-(2-cyanophenyl)-2-{[2-(3-fluorophenyl)ethyl]amino}(3-pyridyl))carboxamide],4950
7,N#Cc1ccccc1-c1ccc(C(=O)NCCCN2C(=O)CC[C@H]2CN)c(NCCc2cccc(F)c2)n1 [N-{3-[(5S)-5-(aminomethyl)-2-oxopyrrolidinyl]propyl}(6-(2-cyanophenyl)-2-{[2-(3-fluorophenyl)ethyl]amino}(3-pyridyl))carboxamide],11700
8,Cn1cc(-c2nc(NCCc3cccc(F)c3)c(C(=O)NCCCNC(=O)OC(C)(C)C)cc2F)cn1 [N-{3-[(tert-butoxy)carbonylamino]propyl}(5-fluoro-2-{[2-(3-fluorophenyl)ethyl]amino}-6-(1-methylpyrazol-4-yl)(3-pyridyl))carboxamide],4500
9,CC(C)(C)OC(=O)NCCCNC(=O)CNC(=O)c1ccc(-c2ccccc2C#N)nc1NCCc1cccc(F)c1 [N-{3-[(tert-butoxy)carbonylamino]propyl}-2-[(6-(2-cyanophenyl)-2-{[2-(3-fluorophenyl)ethyl]amino}(3-pyridyl))carbonylamino]acetamide],9880
10,N#Cc1ccccc1-c1ccc(C(=O)N[C@H](CCCCNC(=O)OCc2ccccc2)C(N)=O)c(NCCc2cccc(F)c2)n1 [N-{(1R)-1-carbamoyl-5-[(phenylmethoxy)carbonylamino]pentyl}(6-(2-cyanophenyl)-2-{[2-(3-fluorophenyl)ethyl]amino}(3-pyridyl))carboxamide],58800
11,CC(=O)N[C@@H](CNC(=O)c1ccc(-c2ccccc2C#N)nc1NCCc1cccc(F)c1)C(N)=O [N-{(1S)-1-carbamoyl-2-[(6-(2-cyanophenyl)-2-{[2-(3-fluorophenyl)ethyl]amino}(3-pyridyl))carbonylamino]ethyl}acetamide],2630
12,C[C@H](CNC(=O)c1cc(F)c(-c2cnn(C)c2)nc1NCCc1cccc(F)c1)NCCO [N-{(2R)-2-[(2-hydroxyethyl)amino]propyl}(5-fluoro-2-{[2-(3-fluorophenyl)ethyl]amino}-6-(1-methylpyrazol-4-yl)(3-pyridyl))carboxamide],648
13,COCCN[C@H](C)CNC(=O)c1cc(F)c(-c2cnn(C)c2)nc1NCCc1cccc(F)c1 [N-{(2R)-2-[(2-methoxyethyl)amino]propyl}(5-fluoro-2-{[2-(3-fluorophenyl)ethyl]amino}-6-(1-methylpyrazol-4-yl)(3-pyridyl))carboxamide],2330
14,C[C@H](CNC(=O)c1cc(F)c(-c2cnn(C)c2)nc1NCCc1cccc(F)c1)NCC(N)=O [N-{(2R)-2-[(carbamoylmethyl)amino]propyl}(5-fluoro-2-{[2-(3-fluorophenyl)ethyl]amino}-6-(1-methylpyrazol-4-yl)(3-pyridyl))carboxamide],636
15,C[C@H](CNC(=O)c1cc(F)c(-c2cnn(C)c2)nc1NCCc1cccc(F)c1)NS(C)(=O)=O [N-{(2R)-2-[(methylsulfonyl)amino]propyl}(5-fluoro-2-{[2-(3-fluorophenyl)ethyl]amino}-6-(1-methylpyrazol-4-yl)(3-pyridyl))carboxamide],1000
16,C[C@H](CNC(=O)c1ccc(-c2ccccc2C#N)nc1NCCc1cccc(F)c1)NS(C)(=O)=O [N-{(2R)-2-[(methylsulfonyl)amino]propyl}(6-(2-cyanophenyl)-2-{[2-(3-fluorophenyl)ethyl]amino}(3-pyridyl))carboxamide],1330

row,Structure (SMILES),IC50 [nM]
1,C[C@H](CNC(=O)c1cc(F)c(-c2cn[nH]c2)nc1NCCc1cccc(F)c1)NC(=O)OC(C)(C)C [N-{(2R)-2-[(tert-butoxy)carbonylamino]propyl}(5-fluoro-2-{[2-(3-fluorophenyl)ethyl]amino}-6-pyrazol-4-yl(3-pyridyl))carboxamide],8210
2,C[C@H](CNC(=O)c1ccc(-c2ccccc2C#N)nc1NCCc1cccc(F)c1)N(C)S(C)(=O)=O [N-{(2R)-2-[methyl(methylsulfonyl)amino]propyl}(6-(2-cyanophenyl)-2-{[2-(3-fluorophenyl)ethyl]amino}(3-pyridyl))carboxamide],7070
3,C[C@@H](CNC(=O)CNC(=O)OC(C)(C)C)CNC(=O)c1cc(F)c(-c2cnn(C)c2)nc1NCCc1cccc(F)c1 [N-{(2R)-3-[(5-fluoro-2-{[2-(3-fluorophenyl)ethyl]amino}-6-(1-methylpyrazol-4-yl)(3-pyridyl))carbonylamino]-2-methylpropyl}-2-[(tert-butoxy)carbonylamino]acetamide],373
4,C[C@@H](CNC(=O)CN)CNC(=O)c1cc(F)c(-c2cnn(C)c2)nc1NCCc1cccc(F)c1 [N-{(2R)-3-[(5-fluoro-2-{[2-(3-fluorophenyl)ethyl]amino}-6-(1-methylpyrazol-4-yl)(3-pyridyl))carbonylamino]-2-methylpropyl}-2-aminoacetamide],152
5,C[C@@H](CNC(=O)CO)CNC(=O)c1cc(F)c(-c2cnn(C)c2)nc1NCCc1cccc(F)c1 [N-{(2R)-3-[(5-fluoro-2-{[2-(3-fluorophenyl)ethyl]amino}-6-(1-methylpyrazol-4-yl)(3-pyridyl))carbonylamino]-2-methylpropyl}-2-hydroxyacetamide],105
6,C[C@@H](CNC(=O)c1ccc(-c2ccccc2C#N)nc1NCCc1cccc(F)c1)NS(C)(=O)=O [N-{(2S)-2-[(methylsulfonyl)amino]propyl}(6-(2-cyanophenyl)-2-{[2-(3-fluorophenyl)ethyl]amino}(3-pyridyl))carboxamide],1210
7,C[C@@H](CNC(=O)c1ccc(-c2ccccc2C#N)nc1NCCc1cccc(F)c1)N(C)S(C)(=O)=O [N-{(2S)-2-[methyl(methylsulfonyl)amino]propyl}(6-(2-cyanophenyl)-2-{[2-(3-fluorophenyl)ethyl]amino}(3-pyridyl))carboxamide],5840
8,N#Cc1ccccc1-c1ccc(C(=O)N[C@H](CCCNC(=O)OCc2ccccc2)C(N)=O)c(NCCc2cccc(F)c2)n1 [N-{(4R)-4-carbamoyl-4-[(6-(2-cyanophenyl)-2-{[2-(3-fluorophenyl)ethyl]amino}(3-pyridyl))carbonylamino]butyl}(phenylmethoxy)carboxamide],19600
9,N#Cc1ccccc1-c1ccc(C(=O)NCC2CCN(C(=O)CN)CC2)c(NCCc2cccc(F)c2)n1 [N-{[1-(2-aminoacetyl)(4-piperidyl)]methyl}(6-(2-cyanophenyl)-2-{[2-(3-fluorophenyl)ethyl]amino}(3-pyridyl))carboxamide],572
10,N#Cc1ccccc1-c1ccc(C(=O)NCC2CCCCCN2C(=O)CN)c(NCCc2cccc(F)c2)n1 (stereo not shown) [N-{[1-(2-aminoacetyl)azaperhydroepin-2-yl]methyl}(6-(2-cyanophenyl)-2-{[2-(3-fluorophenyl)ethyl]amino}(3-pyridyl))carboxamide],248
11,N#Cc1ccccc1-c1ccc(C(=O)NCC2CCN(C(=O)CN)C2)c(NCCc2cccc(F)c2)n1 (stereo not shown) [N-{[1-(2-aminoacetyl)pyrrolidin-3-yl]methyl}(6-(2-cyanophenyl)-2-{[2-(3-fluorophenyl)ethyl]amino}(3-pyridyl))carboxamide],203
12,N#Cc1ccccc1-c1ccc(C(=O)NCC2CCCN(CCN)C2=O)c(NCCc2cccc(F)c2)n1 (stereo not shown) [N-{[1-(2-aminoethyl)-2-oxo(3-piperidyl)]methyl}(6-(2-cyanophenyl)-2-{[2-(3-fluorophenyl)ethyl]amino}(3-pyridyl))carboxamide],31
13,Cn1cc(-c2ccc(C(=O)NCc3ccn(CCN)n3)c(NCCc3cccc(F)c3)n2)cn1 [N-{[1-(2-aminoethyl)pyrazol-3-yl]methyl}(2-{[2-(3-fluorophenyl)ethyl]amino}-6-(1-methylpyrazol-4-yl)(3-pyridyl))carboxamide],1860
14,NCCn1ccc(CNC(=O)c2ccc(-c3cc[nH]n3)nc2NCCc2cccc(F)c2)n1 [N-{[1-(2-aminoethyl)pyrazol-3-yl]methyl}(2-{[2-(3-fluorophenyl)ethyl]amino}-6-pyrazol-3-yl(3-pyridyl))carboxamide],5510
15,NCCn1ccc(CNC(=O)c2ccc(-c3cn[nH]c3)nc2NCCc2cccc(F)c2)n1 [N-{[1-(2-aminoethyl)pyrazol-3-yl]methyl}(2-{[2-(3-fluorophenyl)ethyl]amino}-6-pyrazol-4-yl(3-pyridyl))carboxamide],1490
